According to US6248718A, “Lesion-directed dry dosage forms of antibacterial agents for the treatment of acute mucosal infections of the oral cavity” (priority 1999, dated 2001):
Converted amounts (≈) assume the structure as drawn.

Key:
[1] = intravenous injection of 500 mg penicillin G; cited from earlier work
[2] = tested on: bacteria in saliva of healthy volunteers; experiment: Inhibition of bacterial growth in the saliva in vivo (Example V); conditions: in theory, 0.1 ml saliva
Experimental: Five healthy adult volunteers, three men and two women, were asked to refrain from drinking or eating for two hours after breakfast. At the end of two hours, an aliquot of 0.1 ml of saliva was pipetted from the mouth of each volunteer and spread over the surface of a sheep blood agar plate with a sterile plastic loop. The inoculated blood agar plate was incubated in an aerobic atmosphere containing 5% CO2 as pre-medication control. Then 100 mg, 50 mg, 20 mg, 10 mg and 2 mg of penicillin G potassium dry powder, USP grade, were placed in the right buccal pouch with a spatula between the cheek and the lower gum of each volunteer, respectively. The volunteers were asked to retain the dissolved penicillin powder at the site of medication as concentrated as possible, not to be diluted by saliva from other parts of the mouth for one hour.
At the end of one hour, 0.1 ml of saliva from each volunteer was pipetted from the right buccal pouch where the medication was placed, and inoculated and spread onto the surface of a sheep blood agar plate. The inoculum was spread with a sterile plastic loop.

bacteria in human saliva = experiment: Inhibition of bacterial growth in human saliva in vitro (Example IV); assay type: cell-based
Experimental: For this study, five healthy adult volunteers, three men and two women, were asked to refrain from drinking and eating for two hours after breakfast. At the end of two hours, about five (5) ml of saliva was obtained from the oral cavity of each volunteer. Aliquots of 0.1 ml of saliva were pipetted immediately from each saliva sample and spread over the surface of two 5% sheep blood agar plates with a sterile plastic loop. One inoculated blood agar plate was incubated in an aerobic atmosphere containing 5% CO2, and the other anaerobically at 37° C. for 18 hours, as untreated controls.
Aliquots of 0.2 ml of the saliva from each volunteer's sample were pipetted into sterile test tubes, and labeled from No. 2 to No. 13. Five equal doses of dry powder of the USP grade penicillin G potassium salt, 200 mg each, were weighed and put into five sterile test tubes, all labeled No. 1. The dry powder of antibiotic was dissolved in 0.4 ml saliva obtained from each of the five volunteers to constitute an initial concentration of antibiotic concentration of […] in saliva. An aliquot of 0.2 ml of the saliva antibiotic solution was pipetted from tube No. 1 into tube No. 2. After having been thoroughly mixed, 0.2 ml of the content in tube No. 2 was pipetted to tube No. 3, and so forth continuously in succession to make a serial double dilution of penicillin G potassium solutions in saliva through tube No. 13. Finally, the test tubes contained different concentrations of penicillin G potassium in the saliva of five volunteers, as follows.
The mixtures of antibiotic and saliva in the test tubes were incubated at 37° C. One hour later, an aliquot of 0.1 ml was pipetted from the content of each tube, first dropped in the center of a blood agar plate and then spread to the periphery of the plate surface. The plates were incubated aerobically at 37° C. with 5% carbon dioxide in the atmosphere for 18 hours and were examined for bacterial growth.

[3] = tested on: Gram-negative bacilli (Salmonella, Shigella, most Escherichia coli strains, all Proteus mirabilis strains and most Bacteroides strains); conditions: in vitro; cited from earlier work
[4] = tested on: Staphylococcus aureus (ATCC 29213); experiment: MIC for standard strain used in saliva antibiotic assay (Examples I, II); assay type: cell-based; conditions: nutrient broth, 37° C., 18 hours
Description: The final concentrations of oxytetracycline in the control standard nutrient broth were 0.25 mcg/ml, 0.5 mcg/ml, 1.0 mcg/ml, 2.0 mcg/ml, 4.0 mcg/ml, and 8.0 mcg/ml. The final dilutions of saliva sample were 1/50,000, 1/100,000, 1/200,000, 1/400,000, 1/800,000 and 1/1,600,000 for the peak concentration test tubes and 1/4,000. 1/8,000, 1/16,000 and 1/32,000 for the trough concentration test tubes. The Staphylococcus aureus (ATCC 29213) was also used as the standard test microorganism.

[5] = Local concentration of penicillin in saliva after a troche containing 50 mg penicillin G; assay type: in vivo, human
Experimental: The local concentration of penicillin in the saliva was determined as follows. […] This loculated pocket of saliva was not swallowed and was not to be diluted with excess saliva from other parts of the mouth for one hour. Two samples were taken for assay to determine the peak and trough local concentrations of penicillin during the one-hour duration of medicinal treatment. At the time when the troche was completely dissolved and one hour later, aliquots of 10 microliters were pipetted from this pocket of saliva solution at the site of medication, representing the peak level and the trough level of antibiotic concentration, and transferred into 10 ml of distilled water to make a 1:1.000 dilution and into 1 ml of distilled water to make a 1:100 dilution, respectively. The diluted saliva antibiotic solutions were passed through a sterile bacteria-filter to remove any bacterial or fungal contaminants of the oral flora.
For determination of the peak concentration, 1 ml of the bacteria-free filtrate was further diluted with 9 ml of nutrient broth to achieve a 1:10,000 dilution of the saliva. Then a serial two-fold dilution was made of this 1:10,000 diluted saliva sample with an equal volume of nutrient broth in a roll of test tubes to obtain a series of 1 ml aliquots of nutrient broth in which the saliva was diluted to 20,000, 40,000, 80,000, 160,000, 320,000, 640,000, 1,280,000 and 2,560,000 folds respectively. […] Thus the final dilutions of the saliva sample were in the range of 40,000 to 5,120,000 folds.
For determining the trough concentration, the entire 1 ml of the 1:100 diluted saliva filtrate was used to make the serial dilutions so that the final dilutions of saliva sample were in the range of 4,000 to 256,000 folds in the final test culture.
As control standards, a series of test tubes containing 1 ml of nutrient broth with varying concentrations of penicillin G potassium salt ranging from 0.1 units to 10 units/ml were similarly mixed with an equal volume of nutrient broth freshly inoculated with the standard tubes of Staphylococcus aureus. Both the test and control standard tubes were incubated at 37° C. for 18 hours. Among the test tubes showing no gross evidence of bacterial growth, the one containing the highest dilution of saliva and the one containing the least amount of penicillin G were considered as having the identical concentration of penicillin, i.e. the MIC of the staphylococcus aureus.

[6] = tested on: Staphylococcus aureus ATCC 29213; experiment: MIC for standard strain used in saliva antibiotic assay (Examples VII-IX); assay type: cell-based; conditions: nutrient broth, 37° C., 18 hours
Experimental: Each filtered mixture in test tube was inoculated with 0.1 ml of a 1:1,000 dilution of a 12 hour broth culture of Staphylococcus aureus ATCC 29213.
A row of 6 test tubes each containing 2 ml of nutrient broth with decreasing concentrations of penicillin G potassium from 6.2 to 0.16 mcg/ml, using a serial double dilution method described in a., was prepared and similarly inoculated with 0.1 ml broth culture of Staphylococcus aureus ATCC 29213 as the standard.
All test tubes were incubated at 37° C. for 18 hours and observed for bacterial growth against an inoculated broth containing neither antibiotic nor saliva samples.
In this study, the drug powder was suspended in one teaspoonful of water and swallowed by the test subjects two hours after breakfast, followed by drinking an 8 Oz. glass of water. The test subjects refrained from drinking or eating for the next three hours. Six samples of saliva were collected from each subject at 30-minute intervals in succession in the next three hours. An aliquot of 0.2 ml from each saliva sample was transferred to 3.8 ml of nutrient broth. The mixture of the latter was forced to pass a bacterial filter. Two (2) ml of the bacteria-free filtrate was pipetted out into a sterile test tube and inoculated with 0.1 ml of a 1:1,000 dilution of a 12 hours broth culture of Staphylococcus aureus ATCC 29213 and incubated at 37° C. for 18 hours. […]

[7] = earlier treatments of oral infections / aphthous ulcers; cited from earlier work
[8] = Topical treatment of patients with aphthous ulcers with troches; assay type: in vivo, human
Experimental: Patients with aphthous ulcers were advised to brush their teeth to rid them of food residues, and to rinse their mouths with water prior to initiating treatment. One penicillin/magnesium stearate troche was placed in the patients mouths directly over the ulcerated lesion. The troche was dissolved or disintegrated in a minimum amount of saliva directly over the ulcer in no more than 15 minutes, preferably in about 8 to about 12 minutes. The patients were advised to keep the ingredients of the disintegrated troche at the site of the lesion as long as possible. Food and beverages were avoided for one hour after each treatment. If multiple aphthous ulcers were present, only one troche is required for the treatment of a cluster of small ulcers. The topical treatments were conducted 4 times daily, for example, after breakfast, after lunch, after dinner and before bed time for no more than 4 days. […] The burning sensation lessened with subsequent applications.
For instance, the first sign of healing is usually the fading of the hyperemic zone at the periphery of the ulcer and the lessening of edema at the base of the ulcer. The membrane covering the ulcer becomes thinner, more translucent, more pearly white instead of a grayish-yellowish white prior to the application and contract with the troche. […]

[9] = tested on: Staphylococcus aureus (ATCC 29213); conditions: standard strain; cited from earlier work

| SMILES | average peak blood level [1] | theoretical dose sufficient for initial topical MIC concentration of 2 mg/ml [2] [mg] | bactericidal effect (bacteria in human saliva; 1 mg/ml, one hour's incubation) | MIC (bacteria in human saliva; Homo sapiens, read-out: MIC / concentration inhibiting growth of oral flora in saliva) [µg/mL] | cut-off minimum inhibition concentration at which many Gram-negative bacilli fall into sensitive category [3] [µg/mL] | MIC [4] [unit/ml] | initial concentration at the ulcer ([5]; assuming troche is dissolved in 0.1 ml of saliva) | local trough concentration in saliva ([5]; human, in vivo, 60 min) | concentration at 1 h ([5]; human, saliva, 50 mg, 50 mg troche, end of one hour, read-out: local trough concentration in saliva) [µg/mL] | concentration at which bacteria grew to full turbidity [6] [µg/mL] | effectiveness of treatment [7] | adverse reactions ([8]; 4 days of penicillin medication) | state of ulcer membrane ([8]; after 4 days of penicillin medication) | known minimum inhibitory concentration (MIC) [9] | MIC / concentration inhibiting growth of oral flora in saliva (bacteria in human saliva; in vitro, aerobic) [µg/mL] |
| --- | --- | --- | --- | --- | --- | --- | --- | --- | --- | --- | --- | --- | --- | --- | --- |
| CC1(C)S[C@@H]2[C@H](NC(=O)Cc3ccccc3)C(=O)N2[C@H]1C(=O)O [penicillin G] | 16 mcg/ml and about 16 mcg/ml and about 26 units/mi | 0.2 | not "bactericidal" within one hour's incubation time | 2000 (≈ 5.98 mM) | ≤ 740 | 1 | – | – | – | – | – | – | – | – | – |
| CC1(C)S[C@@H]2[C@H](NC(=O)Cc3ccccc3)C(=O)N2[C@H]1C(=O)O [penicillin] | – | – | – | – | – | – | up to 500 mg/ml | about 12,000 Units per 1 ml saliva | ~7500 | ≤ 0.37 | ineffective | no observed adverse reactions of stomatitis or discoloration of the tongue | only remnants of a thin pearly whitish membrane remain, if any | 0.25-2 units/mi | 2000 |
